In patent US20120237937A1, “METHODS TO DETECT CANCER IN ANIMALS” (UNIVERSITY OF LOUISVILLE RESEARCH FOUNDATION, INC., priority 2009, published 2012):
Counter-ions that a name gives are not always drawn.

Test: GC-MS quantification of total and 13C-enriched metabolites in paired normal and cancerous lung tissues
[1] = patient #6 (sqC, grade II), cancer tissue
[2] = patient #6 (sqC, grade II), normal tissue
[3] = patient #7 (adenoC, grade II), cancer tissue
[4] = patient #7 (adenoC, grade II), normal tissue
[5] = patient #8 (sqC, grade II-III), cancer tissue
[6] = patient #8 (sqC, grade II-III), normal tissue
[7] = patient #9 (sqC, grade II), cancer tissue
[8] = patient #9 (sqC, grade II), normal tissue
[9] = patient #10 (sqC, grade III), cancer tissue
[10] = patient #10 (sqC, grade III), normal tissue

Compound	metabolite content of lung tissue [1] [μmole/g dry weight]	metabolite content of lung tissue [2] [μmole/g dry weight]	metabolite content of lung tissue [3] [μmole/g dry weight]	metabolite content of lung tissue [4] [μmole/g dry weight]	metabolite content of lung tissue [5] [μmole/g dry weight]	metabolite content of lung tissue [6] [μmole/g dry weight]	metabolite content of lung tissue [7] [μmole/g dry weight]	metabolite content of lung tissue [8] [μmole/g dry weight]	metabolite content of lung tissue [9] [μmole/g dry weight]	metabolite content of lung tissue [10] [μmole/g dry weight]
O=C(O)CC(O)(CC(=O)O)C(=O)O [Total Cit, citrate]	1.32	0.60	1.18	1.21	1.56	1.28	1.53	0.77	1.37	0.74
NC(=O)CC[C@H](N)C(=O)O [Total Gln, glutamine]	7.68	0.56	1.02	1.41	1.32	0.64	2.71	0.74	2.99	0.79
N[C@@H](CCC(=O)O)C(=O)O [Total Glu, glutamate]	4.80	0.24	2.97	2.96	3.25	1.88	4.78	1.91	3.28	1.82
O=C(O)CCC(=O)O [Total Succ, succinate]	1.34	0.17	0.70	0.50	1.84	0.89	1.59	0.64	3.13	1.14
